The numbers were not newly measured in US20250152551A1, “DOCETAXEL COMPOSITIONS AND METHODS” (ZHUHAI BEIHAI BIOTECH CO., LTD., priority 2022, published 2025), which cites them from elsewhere.

In data set [1] the test system is microtubule depolymerization.

`CC(=O)O[C@@]12CO[C@@H]1C[C@H](O)[C@@]1(C)C(=O)[C@H](O)C3=C(C)[C@@H](OC(=O)[C@H](O)[C@@H](NC(=O)OC(C)(C)C)c4ccccc4)C[C@@](O)([C@@H](OC(=O)c4ccccc4)[C@H]21)C3(C)C` [docetaxel]: the Solubility in water entry is on record as “practically insoluble in water”. Also, in data set [1], the “Potency in inhibiting microtubule depolymerization relative to paclitaxel” value is “about twice as potent as paclitaxel”.
